The results in this text go back to US11731942B1, “3-substituted quinolin-2-one compounds as antibacterial agents” (KING FAISAL UNIVERSITY, priority 2023, dated 2023).

pIC50: −log10 of the molar value. In brackets after ≈: the same amount, converted by molar mass. Read-outs that look alike come from different tables or passages of the source. Bounds are passed on as bounds.

Experiment [1] relates to Enterococcus faecium ATCC 35667. Description: In vitro antibacterial activity (CLSI M07-A10 dilution), MIC. The class given is cell-based. The following applies: ATCC35667.
The subject of experiment [2] is Staphylococcus aureus ATCC 29213. The experiment is described as above. Format: cell-based. The following applies: ATCC29213.
For experiment [3], the system named is Staphylococcus epidermidis. The experiment is described as above. The class given is cell-based.
The subject of experiment [4] is Klebsiella pneumonia MTCC 618. The description is as above. Format: cell-based. The following applies: Klebsiella pneumoniae, MTCC618.
Experiment [5] deals with Escherichia coli MTCC 443. The experiment is described as above. The class given is cell-based. The settings on record: MTCC443.
In experiment [6] the test system is Staphylococcus aureus ATCC BAA-1556 (MERSA resistant). The description is as above. Format: cell-based. The settings on record: ATCCBAA1556.
The test system of experiment [7] is Enterococcus faecium ATCC 51559 (VRE resistant). Described as above. Format: cell-based.
Experiment [8] deals with Pseudomonas aeruginosa MTCC 741. Described as above. Format: cell-based. The settings on record: MTCC741.
In experiment [9] the test system is Bacillus subtilis MTCC 441. The description is as above. The settings on record: MTCC441. The class given is cell-based.
For experiment [10], the system named is H37Rv type of M. tuberculosis strains. The experiment in a line: Anti-tubercular alamar blue microplate MIC. The class given is cell-based. The settings on record: 168 h, mycobacterium tuberculosis H37Rv strain, 7 days at 37° C., read-out: anti-mycobacterial activity (MIC). (Resazurin is reduced to fluorescent resorufin, in cell work by metabolically active cells.)

The target in another experiment is T1, E. coli DNA Gyrase (Escherichia coli, UniProt P0AES4+P0AES6).
T1 construct: purchased Inspiralis
The experiment in a line: Inspiralis DNA gyrase inhibition assay. Format: biochemical. On the procedure:
Inhibitory potencies were investigated utilizing the Inspiralis assay on streptavidin-coated 96-well microtiter plates. First, the plates were rehydrated with buffer (20 mM Tris-HCl with pH 7.6, 0.01% w/v BSA, 0.05% v/v Tween 20, 137 mM NaCl) and the biotinylated oligonucleotide was then immobilized. After washing off the unbound oligonucleotide, the enzyme test was performed. The reaction volume of 30 μL in buffer (35 mM Tris×HCl with pH 7.5, 4 mM MgCl2, 24 mM KCl, 2 mM DTT, 1.8 mM spermidine, 1 mM ATP, 6.5% w/v glycerol, 0.1 mg/mL albumin) contained 1.5 U of DNA gyrase from E. coli, 0.75 μg of relaxed pNO1 plasmid, and 3 μL solution of the inhibitor in 10% DMSO and 0.008% Tween 20. Reaction solutions were incubated at 37° C. for 30 min. After that, the TF buffer (50 mM NaOAc with pH 5.0, 50 mM NaCl and 50 mM MgCl2) was added to terminate the enzymatic reaction. After additional incubation for 30 min at rt, during which biotinoligonucleotide-plasmid triplex was formed, the unbound plasmid was washed off using TF buffer and SybrGOLD in T10 buffer (10 mM Tris HCl with pH 8.0 and 1 mM EDTA) was added. The fluorescence was measured with a microplate reader (BioTek Synergy H4, excitation: 485 nm, emission: 535 nm). Initial screening was done at 100 or 10 μM concentration of inhibitors. […] GraphPad Prism software was used to calculate the IC50 values. […]

T1 sequence (P0AES4 whole entry, one chain of several): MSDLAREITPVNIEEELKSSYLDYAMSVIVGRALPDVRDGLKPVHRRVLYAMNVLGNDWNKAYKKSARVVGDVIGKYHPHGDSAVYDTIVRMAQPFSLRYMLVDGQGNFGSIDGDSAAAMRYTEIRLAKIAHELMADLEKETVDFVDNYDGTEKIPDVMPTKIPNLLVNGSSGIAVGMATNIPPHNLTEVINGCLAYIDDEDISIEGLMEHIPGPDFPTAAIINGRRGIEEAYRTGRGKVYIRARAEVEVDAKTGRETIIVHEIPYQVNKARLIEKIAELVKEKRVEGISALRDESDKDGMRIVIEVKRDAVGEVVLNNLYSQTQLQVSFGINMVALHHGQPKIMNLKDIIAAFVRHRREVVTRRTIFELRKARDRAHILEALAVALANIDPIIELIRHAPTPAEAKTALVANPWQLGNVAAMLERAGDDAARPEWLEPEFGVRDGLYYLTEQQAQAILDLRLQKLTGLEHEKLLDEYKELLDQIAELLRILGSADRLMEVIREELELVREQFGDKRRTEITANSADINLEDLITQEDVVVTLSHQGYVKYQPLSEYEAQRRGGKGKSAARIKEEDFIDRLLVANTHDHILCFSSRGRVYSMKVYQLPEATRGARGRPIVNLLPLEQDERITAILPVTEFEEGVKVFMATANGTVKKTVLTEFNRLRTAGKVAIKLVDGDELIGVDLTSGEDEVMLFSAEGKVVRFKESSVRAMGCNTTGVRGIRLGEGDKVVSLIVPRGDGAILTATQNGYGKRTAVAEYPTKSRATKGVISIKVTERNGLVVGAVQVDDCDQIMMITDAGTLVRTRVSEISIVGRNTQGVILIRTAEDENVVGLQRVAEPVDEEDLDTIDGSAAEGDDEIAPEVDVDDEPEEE

Usually MIC stands for the smallest concentration in the dilution series that meets the test's criterion for growth inhibition. In the case of `CN[C@H](CC(C)C)C(=O)N[C@H]1C(=O)N[C@@H](CC(N)=O)C(=O)N[C@H]2C(=O)N[C@H]3C(=O)N[C@H](C(=O)N[C@H](C(=O)O)c4cc(O)cc(O)c4-c4cc3ccc4O)[C@H](O)c3ccc(c(Cl)c3)Oc3cc2cc(c3O[C@@H]2O[C@H](CO)[C@@H](O)[C@H](O)[C@H]2O[C@H]2C[C@](C)(N)[C@H](O)[C@H](C)O2)Oc2ccc(cc2Cl)[C@H]1O` [Vancomycin, reference compound], the MIC in experiment [1] (Enterococcus faecium) was 0.5 mg/L (≈ 0.345 µM); in experiment [2] (Staphylococcus aureus), 1 mg/L (≈ 0.69 µM); in experiment [3], 1 mg/L (≈ 0.69 µM); in experiment [4], greater than 128 mg/L; in experiment [5] (Escherichia coli), greater than 128 mg/L; in experiment [6] (Staphylococcus aureus) it was 1 mg/L (≈ 0.69 µM). Also, the MIC in [7] (Enterococcus faecium) is greater than 128 mg/L; in experiment [8] (Pseudomonas aeruginosa) it was greater than 128 mg/L; in experiment [9] (Bacillus subtilis), 0.5 mg/L (≈ 0.345 µM).
The pIC50 is the negative decadic logarithm of the IC50, by convention in mol/L. As for `CCCCCN(C)Cc1cc(C(=O)O)ccc1/C=C/C(=O)c1cc2cc(F)cc(NC)c2[nH]c1=O` [Compound 7, (E)-4-(3-(6-fluoro-8-(methylamino)-2-oxo-1,2-dihydroquinolin-3-yl)-3-oxoprop-1-en-1-yl)-3-((methyl(pentyl)amino)methyl)benzoic acid], the MIC came to 0.25 mg/L (≈ 0.521 µM) in experiment [1] (Enterococcus faecium ATCC 35667, read-out: MIC); 0.5 mg/L (≈ 1.04 µM) in experiment [2] (Staphylococcus aureus ATCC 29213, read-out: MIC); 0.5 mg/L (≈ 1.04 µM) in experiment [3] (read-out: MIC); 0.5 mg/L (≈ 1.04 µM) in [4] (Klebsiella pneumonia MTCC 618, read-out: MIC); 1 mg/L (≈ 2.09 µM) in [5] (Escherichia coli MTCC 443, read-out: MIC); 0.5 mg/L (≈ 1.04 µM) in experiment [6] (Staphylococcus aureus ATCC BAA-1556 (MERSA resistant), read-out: MIC). Further, the MIC was determined as 4 mg/L (≈ 8.34 µM) in [10]; 0.25 mg/L (≈ 0.521 µM) in experiment [7] (Enterococcus faecium ATCC 51559 (VRE resistant), read-out: MIC); 0.25 mg/L (≈ 0.521 µM) in experiment [8] (Pseudomonas aeruginosa MTCC 741, read-out: MIC); 0.25 mg/L (≈ 0.521 µM) in [9] (Bacillus subtilis MTCC 441, read-out: MIC). In addition, at E. coli DNA Gyrase, the pIC50 was 7.92.
